Literature values, collected in US20080075658A1, “Method of Radiolabeling Formulations for Gamma Scintigraphy Assessment” (priority 2006, published 2008).

Details: radioactive decay of the radionuclide

Row | SMILES | half life | half-life [days]
1 | [Tc] [Example 99mTc, technetium] | 6.01 h | –
2 | [O-2].[O-2].[O-2].[Sm+3].[Sm+3] [Sm2O3, samarium oxide] | 46.27 h | –
3 | [Cl-].[Cl-].[Cl-].[In+3] [InCl2, indium chloride] | InCl2 half life is 67.2 hrs | 2.8
